Measurements from ChEMBL document CHEMBL3784991, “Design, synthesis and evaluation of novel HIV-1 NNRTIs with dual structural conformations targeting the entrance channel of the NNRTI binding pocket” (Eur J Med Chem, 2016).
Structures can show the parent of a compound that is named as a salt.

Columns and labels:
[1] = tested on: Human immunodeficiency virus 1; assay: Antiviral activity against wild type HIV1 3B infected in human MT4 cells assessed as cell viability after 4 days by MTT assay; type: functional, organism-based; conditions: Human immunodeficiency virus 1, 3B, MT4, 96 h
[2] = Cytotoxicity against mock infected human MT4 cells after 4 days by MTT assay; type: cell-based
[3] = Selectivity index, ratio of CC50 for mock infected human MT4 cells to EC50 for HIV1 3B infected in human MT4 cells; type: toxicity, cell-based; conditions: read-out: Ratio CC50/EC50
[4] = tested on: Human immunodeficiency virus 2; assay: Antiviral activity against HIV2 ROD infected in human MT4 cells assessed as cell viability after 4 days by MTT assay; type: functional, organism-based; conditions: Human immunodeficiency virus 2, ISOLATE ROD, MT4, 96 h
[5] = Selectivity index, ratio of CC50 for mock infected human MT4 cells to EC50 for HIV2 ROD infected in human MT4 cells; type: toxicity, cell-based; conditions: read-out: Ratio CC50/EC50
[6] = tested on: Human immunodeficiency virus 1; assay: Antiviral activity against HIV1 RES056 harboring reverse transcriptase K103N/[…] double mutant infected in human MT4 cells assessed as cell viability after 4 days by MTT assay; type: functional, organism-based; conditions: Human immunodeficiency virus 1, RES056, MT4, 96 h
[7] = Selectivity index, ratio of CC50 for mock infected human MT4 cells to EC50 for HIV1 RES056 harboring reverse transcriptase K103N/[…] double mutant infected in human MT4 cells; type: toxicity, cell-based; conditions: read-out: Ratio CC50/EC50
[8] = target: Human immunodeficiency virus type 1 reverse transcriptase (Human immunodeficiency virus 1, UniProt Q72547); assay: Inhibition of wild type HIV1 Reverse transcriptase assessed as reduction of biotin deoxyuridine triphosphate incorporation into the wild type HIV1 reverse transcriptase after 1 hr by ELISA
[9] = tested on: Human immunodeficiency virus 1; assay: Potency index, ratio of nevirapine EC50 to compound EC50 for HIV1 3B infected in human MT4 cells; type: functional

Nc1ccn([C@H]2CS[C@@H](CO)O2)c(=O)n1
EC50 [1]: 2.53 µM
CC50 at 96 h [2]: > 87.2 µM
selectivity ratio [3]: > 34
EC50 [4]: 9.9 µM
selectivity ratio [5]: > 9

Cc1ccc(Nc2nc(Nc3ccc(C#N)cc3)cc(Oc3c(C)cc(C#N)cc3C)n2)cc1
EC50 [1]: > 8.53 µM
CC50 at 96 h [2]: 8.53 µM
selectivity ratio [3]: < 1
EC50 [4]: > 8.53 µM
selectivity ratio [5]: < 1

Cc1ccc(Nc2nc(Nc3ccc(Cl)cc3)cc(Oc3c(C)cc(C)cc3C)n2)cc1
EC50 [1]: > 48.2 µM
CC50 at 96 h [2]: 48.2 µM
selectivity ratio [3]: < 1
EC50 [4]: > 48.2 µM
selectivity ratio [5]: < 1

Cc1ccc(Nc2nc(Nc3cccc(C)c3)cc(Oc3c(C)cc(C)cc3C)n2)cc1
EC50 [1]: > 51 µM
CC50 at 96 h [2]: 51 µM
selectivity ratio [3]: < 1
EC50 [4]: > 51 µM
selectivity ratio [5]: < 1

Cc1cc(C#N)cc(C)c1Oc1cc(Nc2ccc(C#N)cc2)nc(Nc2cccc(C#N)c2)n1
EC50 [1]: > 2.73 µM
CC50 at 96 h [2]: 2.73 µM
selectivity ratio [3]: < 1
EC50 [4]: > 2.73 µM
selectivity ratio [5]: < 1

Cc1cc(C)c(Oc2cc(Nc3ccc(C#N)cc3)nc(Nc3cccc(C#N)c3)n2)c(C)c1
EC50 [1]: > 5.38 µM
CC50 at 96 h [2]: 5.38 µM
selectivity ratio [3]: < 1
EC50 [4]: > 5.38 µM
selectivity ratio [5]: < 1

Cc1ccc(Nc2nc(Nc3ccc(C#N)cc3)cc(Oc3c(C)cc(C)cc3C)n2)cc1
EC50 [1]: > 27.1 µM
CC50 at 96 h [2]: 27.1 µM
selectivity ratio [3]: < 1
EC50 [4]: > 27.1 µM
selectivity ratio [5]: < 1

Cc1cc(C#N)cc(C)c1Oc1cc(Nc2ccc(Cl)cc2)nc(Nc2cccc(C#N)c2)n1
EC50 [1]: > 3.15 µM
CC50 at 96 h [2]: 3.15 µM
selectivity ratio [3]: < 1
EC50 [4]: > 3.15 µM
selectivity ratio [5]: < 1

Cc1cccc(Nc2cc(Oc3c(C)cc(C#N)cc3C)nc(Nc3cccc(C#N)c3)n2)c1
EC50 [1]: > 2.89 µM
CC50 at 96 h [2]: 2.89 µM
selectivity ratio [3]: < 1
EC50 [4]: > 2.89 µM
selectivity ratio [5]: < 1

Cc1cc(C#N)cc(C)c1Oc1cc(Nc2ccc(C#N)cc2)nc(Nc2ccc(C#N)cc2)n1
EC50 [1]: 0.11 µM
EC50 [6]: 2.18 µM
CC50 at 96 h [2]: 13 µM
selectivity ratio [3]: 117
selectivity ratio [7]: 2
IC50 [8]: 0.0727 µM
Ratio EC50 [9]: 2
EC50 [4]: > 13 µM
selectivity ratio [5]: < 1

Cc1ccc(Nc2nc(Nc3cccc(C)c3)cc(Oc3c(C)cc(C#N)cc3C)n2)cc1
EC50 [1]: > 17.4 µM
CC50 at 96 h [2]: 17.3 µM
selectivity ratio [3]: < 1
EC50 [4]: > 17.4 µM
selectivity ratio [5]: < 1

Cc1cccc(Nc2cc(Oc3c(C)cc(C)cc3C)nc(Nc3cccc(C#N)c3)n2)c1
EC50 [1]: > 25.8 µM
CC50 at 96 h [2]: 25.8 µM
selectivity ratio [3]: < 1
EC50 [4]: > 25.8 µM
selectivity ratio [5]: < 1

Cc1cc(C#N)cc(C)c1Oc1cc(Nc2ccc(Cl)cc2)nc(Nc2ccc(C#N)cc2)n1
EC50 [1]: 0.79 µM
EC50 [6]: > 3.28 µM
CC50 at 96 h [2]: 3.28 µM
selectivity ratio [3]: 4
selectivity ratio [7]: < 1
EC50 [4]: > 3.28 µM
selectivity ratio [5]: < 1

Cc1cc(C)c(Oc2cc(Nc3ccc(Cl)cc3)nc(Nc3ccc(C#N)cc3)n2)c(C)c1
EC50 [1]: ≥ 1.62 µM
EC50 [6]: > 6.67 µM
CC50 at 96 h [2]: 6.68 µM
selectivity ratio [3]: ≤ 4
selectivity ratio [7]: < 1
EC50 [4]: > 6.67 µM
selectivity ratio [5]: < 1

Cc1cc(C)c(Oc2cc(Nc3ccc(Cl)cc3)nc(Nc3cccc(C#N)c3)n2)c(C)c1
EC50 [1]: > 12.6 µM
CC50 at 96 h [2]: 12 µM
selectivity ratio [3]: < 1
EC50 [4]: > 12.6 µM
selectivity ratio [5]: < 1

Cc1ccc(Nc2nc(Nc3ccc(Cl)cc3)cc(Oc3c(C)cc(C#N)cc3C)n2)cc1
EC50 [1]: 31.4 µM
EC50 [6]: > 274 µM
CC50 at 96 h [2]: > 274 µM
selectivity ratio [3]: > 9
selectivity ratio [7]: 1
EC50 [4]: > 274 µM
selectivity ratio [5]: 1

Cc1cc(C)c(Oc2cc(Nc3ccc(C#N)cc3)nc(Nc3ccc(C#N)cc3)n2)c(C)c1
EC50 [1]: 0.78 µM
EC50 [6]: > 5.98 µM
CC50 at 96 h [2]: 5.98 µM
selectivity ratio [3]: 8
selectivity ratio [7]: < 1
EC50 [4]: > 5.98 µM
selectivity ratio [5]: < 1

Cc1cccc(Nc2cc(Oc3c(C)cc(C)cc3C)nc(Nc3ccc(C#N)cc3)n2)c1
EC50 [1]: > 24.1 µM
EC50 [6]: > 24.1 µM
CC50 at 96 h [2]: 24.1 µM
selectivity ratio [3]: < 1
selectivity ratio [7]: < 1
EC50 [4]: > 24.1 µM
selectivity ratio [5]: < 1

Cc1cccc(Nc2cc(Oc3c(C)cc(C#N)cc3C)nc(Nc3ccc(C#N)cc3)n2)c1
EC50 [1]: 0.82 µM
EC50 [6]: > 2.96 µM
CC50 at 96 h [2]: 2.96 µM
selectivity ratio [3]: 4
selectivity ratio [7]: < 1
EC50 [4]: > 2.96 µM
selectivity ratio [5]: < 1

CC(C)Nc1cccnc1N1CCN(C(=O)c2cc3cc(NS(C)(=O)=O)ccc3[nH]2)CC1 [DELAVIRDINE MESYLATE]
EC50 [1]: 0.027 µM
EC50 [6]: > 28.2 µM
CC50 at 96 h [2]: 28.2 µM
selectivity ratio [3]: 1080
selectivity ratio [7]: < 1

O=c1[nH]cnc2c1ncn2[C@H]1CC[C@@H](CO)O1 [DIDANOSINE]
EC50 [1]: 76 µM
CC50 at 96 h [2]: > 212 µM
selectivity ratio [3]: > 3
EC50 [4]: 82.1 µM
selectivity ratio [5]: > 3

O=C1Nc2ccc(Cl)cc2[C@@](C#CC2CC2)(C(F)(F)F)O1 [EFAVIRENZ]
EC50 [6]: 0.225 µM
CC50 at 96 h [2]: > 6.34 µM
selectivity ratio [3]: > 1210
selectivity ratio [7]: > 28

Cc1cc(C#N)cc(C)c1Oc1nc(Nc2ccc(C#N)cc2)nc(N)c1Br [ETRAVIRINE]
EC50 [1]: 0.0039 µM
EC50 [6]: 0.034 µM
CC50 at 96 h [2]: 2.16 µM

Cc1ccnc2c1NC(=O)c1cccnc1N2C1CC1 [NEVIRAPINE]
EC50 [6]: > 15 µM
CC50 at 96 h [2]: > 15 µM

Cc1cn([C@H]2C[C@H](N=[N+]=[N-])[C@@H](CO)O2)c(=O)[nH]c1=O [ZIDOVUDINE]
EC50 [6]: 0.017 µM
CC50 at 96 h [2]: > 7.48 µM
selectivity ratio [3]: > 1000
selectivity ratio [7]: > 448
EC50 [4]: 0.0082 µM
selectivity ratio [5]: > 925
